Data taken from patent US20180338980A1, “AROMATIC SULFONAMIDE DERIVATIVES” (BAYER PHARMA AKTIENGESELLSCHAFT, priority 2015, published 2018).

Biological target: T1, P2X4 (Homo sapiens, UniProt Q99571)
T1 sequence (Q99571 1-388): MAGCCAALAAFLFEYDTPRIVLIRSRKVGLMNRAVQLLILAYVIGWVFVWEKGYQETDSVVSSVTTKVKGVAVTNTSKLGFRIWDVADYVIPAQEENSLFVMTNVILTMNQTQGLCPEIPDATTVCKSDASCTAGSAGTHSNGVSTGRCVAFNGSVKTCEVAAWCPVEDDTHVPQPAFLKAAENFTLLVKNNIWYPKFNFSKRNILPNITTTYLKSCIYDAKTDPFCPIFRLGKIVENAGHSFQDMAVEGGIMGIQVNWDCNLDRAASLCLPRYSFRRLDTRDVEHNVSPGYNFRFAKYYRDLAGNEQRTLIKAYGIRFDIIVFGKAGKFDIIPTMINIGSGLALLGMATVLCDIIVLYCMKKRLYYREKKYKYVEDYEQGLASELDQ
Test: Assay B: human P2X4 receptor cell line, mitochondrial photina luminescence (agonist Bz-ATP at EC50)
Assay type: cell-based
Parameters: host or cells: HEK 293 (recombinant, constitutively expressing; with mitochondrial photina in Assay B)
Conditions: HEK human P2X4 cell line, photina luminescence, agonist Bz-ATP at EC50, average; for Emax: read-out: human P2X4 Assay B avg Efficacy
Method: The identification of agonists and antagonists of the P2X4 receptor from humans and […] also the quantification of the activity of the compounds of the invention was performed by use of recombinant cell lines. […] The test cell lines constitutively express the mouse or human P2X4 receptors. Stimulation of the receptors with an agonist leads to a conformational change of P2X4 and influx of extracellular calcium ions through the ion channel. The cytoplasmatic calcium transient is detected via the calcium sensitive dye Fluo8 for the mouse P2×4 cell line or in case of the human P2×4 cell line a stably expressed calcium-sensitive photoprotein, mitochondrial photina, which, after reconstitution with the cofactor coelenterazine, emits light in dependence of calcium binding [Bovolenta S, Foti M, Lohmer S, Corazza S., J Biomol Screen. […] The strength of Fluo8 fluorescence signal or photina luminescence signal corresponds to the level of receptor activation. An inhibitor would decrease the signal depending on its potency and concentration.
The resulting light signal is measured immediately in the luminometer.

IC50 [nM]	Emax [%]	Compound
192	98	N#Cc1ccccc1CC(=O)Nc1ccc(Oc2cccc(Cl)c2)c(S(N)(=O)=O)c1 [Example 225, N-[4-(3-Chlorophenoxy)-3-sulfamoylphenyl]-2-(2-cyanophenyl)acetamide]
236	71	NS(=O)(=O)c1cc(NC(=O)Cc2ccccc2)ccc1Oc1cccc(C(F)(F)F)c1 [Example 253, 2-Phenyl-N-{3-sulfamoyl-4-[3-(trifluoromethyl)phenoxy]phenyl}acetamide]
271	64	N#Cc1cccc(Oc2ccc(NC(=O)Cc3ccccc3)cc2S(N)(=O)=O)c1 [Example 255, N-[4-(3-Cyanophenoxy)-3-sulfamoylphenyl]-2-phenylacetamide]
491	75	N#Cc1cccc(CC(=O)Nc2ccc(Oc3cccc(Cl)c3)c(S(N)(=O)=O)c2)c1 [Example 226, N-[4-(3-Chlorophenoxy)-3-sulfamoylphenyl]-2-(3-cyanophenyl)acetamide]
289	60	NS(=O)(=O)c1cc(NC(=O)Cc2ncccc2Cl)ccc1Oc1cccc(Cl)c1 [Example 112, N-[4-(3-Chlorophenoxy)-3-sulfamoylphenyl]-2-(3-chloropyridin-2-yl)acetamide]
273	48	NS(=O)(=O)c1cc(NC(=O)Cc2cnc(Cl)cc2Cl)ccc1Oc1cccc(Cl)c1 [Example 111, N-[4-(3-Chlorophenoxy)-3-sulfamoylphenyl]-2-(4,6-dichloropyridin-3-yl)acetamide]
2240	63	NS(=O)(=O)c1cc(NC(=O)Cc2cccnc2)ccc1Oc1cccc(Cl)c1 [Example 181, N-[4-(3-Chlorophenoxy)-3-sulfamoylphenyl]-2-(pyridin-3-yl)acetamide]
392	100	Cc1ccc(F)c(Oc2ccc(NC(=O)Cc3ccccc3)cc2S(N)(=O)=O)c1 [Example 251, N-[4-(2-Fluoro-5-methylphenoxy)-3-sulfamoylphenyl]-2-phenylacetamide]
1770	69	NS(=O)(=O)c1cc(NC(=O)Cc2ccc(C(F)(F)F)cc2)ccc1Oc1ccc(Cl)cc1 [Example 227, N-[4-(4-Chlorophenoxy)-3-sulfamoylphenyl]-2-[4-(trifluoromethyl)phenyl]acetamide]
175	60	NS(=O)(=O)c1cc(NC(=O)Cc2c(Cl)cccc2C(F)(F)F)ccc1Oc1cccc(Cl)c1 [Example 108, N-[4-(3-Chlorophenoxy)-3-sulfamoylphenyl]-2-[2-chloro-6-(trifluoromethyl)phenyl]acetamide]
2560	71	NS(=O)(=O)c1cc(NC(=O)Cc2ccncc2)ccc1Oc1cccc(Cl)c1 [Example 188, N-[4-(3-Chlorophenoxy)-3-sulfamoylphenyl]-2-(pyridin-4-yl)acetamide]

The next lines start with the molecule.

Compound	IC50 [nM]	Emax [%]
COc1ccc(C#N)cc1Oc1ccc(NC(=O)Cc2ccccc2Cl)cc1S(N)(=O)=O [Example 034, 2-(2-Chlorophenyl)-N-[4-(5-cyano-2-methoxyphenoxy)-3-sulfamoylphenyl]acetamide]	172	57
CN1CCC(Oc2ccc(NC(=O)Cc3ccccc3)cc2S(N)(=O)=O)C1 (stereo not shown) [Example 221, N-{4-[(1-Methylpyrrolidin-3-yl)oxy]-3-sulfamoylphenyl}-2-phenylacetamide]	> 50000	30
NS(=O)(=O)c1cc(NC(=O)Cc2ccccc2)ccc1Oc1ccc(F)cc1F [Example 247, N-[4-(2,4-Difluorophenoxy)-3-sulfamoylphenyl]-2-phenylacetamide]	1110	59
Cc1cc(C)cc(Oc2ccc(NC(=O)Cc3ccccc3)cc2S(N)(=O)=O)c1 [Example 246, N-[4-(3,5-Dimethylphenoxy)-3-sulfamoylphenyl]-2-phenylacetamide]	949	94
CN1CCN=C1c1cccc(Oc2ccc(NC(=O)Cc3ccccc3Cl)cc2S(N)(=O)=O)c1 [Example 041, 2-(2-Chlorophenyl)-N-{4-[3-(1-methyl-4,5-dihydro-1H-imidazol-2-yl)phenoxy]-3-sulfamoylphenyl}acetamide]	3380	72
Cc1ccc(C#N)cc1Oc1ccc(NC(=O)Cc2ccccc2Cl)cc1S(N)(=O)=O [Example 045, 2-(2-Chlorophenyl)-N-[4-(5-cyano-2-methylphenoxy)-3-sulfamoylphenyl]acetamide]	176	71
NS(=O)(=O)c1cc(NC(=O)Cc2ccc(C(F)(F)F)cc2)ccc1Oc1ccccc1OC(F)(F)F [Example 072, N-{3-Sulfamoyl-4-[2-(trifluoromethoxy)phenoxy]phenyl}-2-[4-(trifluoromethyl)phenyl]acetamide]	2960	63
NS(=O)(=O)c1cc(NC(=O)Cc2ccccc2Cl)ccc1Oc1cccc(C(=O)N2CCCCC2)c1 [Example 067, 2-(2-chlorophenyl)-N-{4-[3-(piperidin-1-ylcarbonyl)phenoxy]-3-sulfamoylphenyl}acetamide]	241	72
Cn1ccc(Oc2ccc(NC(=O)Cc3ccccc3Cl)cc2S(N)(=O)=O)n1 [Example 236, 2-(2-Chlorophenyl)-N-{4-[(1-methyl-1H-pyrazol-3-yl)oxy]-3-sulfamoylphenyl}acetamide]	232	77
N#Cc1ccccc1COc1ccc(NC(=O)Cc2ccccc2Cl)cc1S(N)(=O)=O [Example 145, 2-(2-Chlorophenyl)-N-{4-[(2-cyanobenzyl)oxy]-3-sulfamoylphenyl}acetamide]	194	72
NS(=O)(=O)c1cc(NC(=O)Cc2ccccc2Cl)ccc1OCc1ncccn1 [Example 154, 2-(2-Chlorophenyl)-N-[4-(pyrimidin-2-ylmethoxy)-3-sulfamoylphenyl]acetamide]	252	77
COc1ccccc1Oc1ccc(NC(=O)Cc2ccccc2)cc1S(N)(=O)=O [Example 070, N-[4-(2-Methoxyphenoxy)-3-sulfamoylphenyl]-2-phenylacetamide]	1100	70
N#Cc1cc(F)cc(Oc2ccc(NC(=O)Cc3ccccc3Cl)cc2S(N)(=O)=O)c1 [Example 069, 2-(2-chlorophenyl)-N-[4-(3-cyano-5-fluorophenoxy)-3-sulfamoylphenyl]acetamide]	2680	71
Cc1nc(C2CC2)ncc1Oc1ccc(NC(=O)Cc2ccccc2Cl)cc1S(N)(=O)=O [Example 058, 2-(2-Chlorophenyl)-N-{4-[(2-cyclopropyl-4-methylpyrimidin-5-yl)oxy]-3-sulfamoylphenyl}acetamide]	3180	73
NS(=O)(=O)c1cc(NC(=O)Cc2ccccc2Cl)ccc1OCC1CCCO1 (stereo not shown) [Example 161, 2-(2-Chlorophenyl)-N-[3-sulfamoyl-4-(tetrahydrofuran-2-ylmethoxy)phenyl]acetamide]	832	74
Cc1cccc(CC(=O)Nc2cc(F)c(Oc3cccc(Cl)c3)c(S(N)(=O)=O)c2)c1 [Example 172, N-[4-(3-Chlorophenoxy)-3-fluoro-5-sulfamoylphenyl]-2-(3-methylphenyl)acetamide]	3240	63
NS(=O)(=O)c1cc(NC(=O)Cc2ccccc2Cl)ccc1OC1CC[S+]([O-])C1 (stereo not shown) [Example 241, 2-(2-Chlorophenyl)-N-{4-[(1-oxidotetrahydrothiophen-3-yl)oxy]-3-sulfamoylphenyl}acetamide]	> 16000	34
Cc1sc(-c2cccnc2)nc1Oc1ccc(NC(=O)Cc2ccccc2Cl)cc1S(N)(=O)=O [Example 239, 2-(2-Chlorophenyl)-N-(4-{[5-methyl-2-(pyridin-3-yl)-1,3-thiazol-4-yl]oxy}-3-sulfamoylphenyl)acetamide]	152	99
NS(=O)(=O)c1cc(NC(=O)Cc2cc3c(cc2Cl)OCCO3)ccc1Oc1cccc(Cl)c1 [Example 277, 2-(7-Chloro-2,3-dihydro-1,4-benzodioxin-6-yl)-N-[4-(3-chlorophenoxy)-3-sulfamoylphenyl]acetamide]	185	45
Cc1cc(Oc2cccc(Cl)c2)c(S(N)(=O)=O)cc1NC(=O)Cc1ccccc1Cl [Example 240, N-[4-(3-Chlorophenoxy)-2-methyl-5-sulfamoylphenyl]-2-(2-chlorophenyl)acetamide]	3040	86
NS(=O)(=O)c1cc(NC(=O)Cc2ccccc2Cl)ccc1Oc1cccc(-c2nnn[nH]2)c1 [Example 021, 2-(2-Chlorophenyl)-N-{3-sulfamoyl-4-[3-(1H-tetrazol-5-yl)phenoxy]phenyl}acetamide]	3860	60
